Experimental data reported in patent US8513423B2 (Janssen Pharmaceutica, NV, priority 2010, dated 2013).
Changes are numbered by the printed parent chain. Read-outs that look alike come from different tables or passages of the source.

Key:
[1] = biological target: T1, mutant MGL (Homo sapiens, UniProt Q99685, L169S/L176S); experiment: MGL ThermoFluor assay - mutant; type: binding
T1 construct: purified mutant MGL (mut-MGLL 11-313 L179S L186S)
T1 sequence (Q99685 1-303 L169S/L176S): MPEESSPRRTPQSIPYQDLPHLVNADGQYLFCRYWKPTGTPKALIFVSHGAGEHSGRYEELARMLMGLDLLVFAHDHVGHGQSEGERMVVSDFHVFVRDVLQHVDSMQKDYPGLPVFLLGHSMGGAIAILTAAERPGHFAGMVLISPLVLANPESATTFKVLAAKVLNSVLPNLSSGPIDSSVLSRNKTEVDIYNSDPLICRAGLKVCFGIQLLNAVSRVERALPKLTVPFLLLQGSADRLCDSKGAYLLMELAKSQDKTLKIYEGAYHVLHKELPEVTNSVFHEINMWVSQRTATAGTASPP
Outline: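 Thermal shift binding with 0.07 mg/ml L169S/L176S MGL, 100 μM 1,8-ANS, 200 mM NaCl, 0.001% Tween-20, 50 mM PIPES pH 7.0. Heated 40–90 °C at 1 °C/min, fluorescence (em 500 nm) tracked to give Tm; Kd fitted from 11-point concentration–Tm response, qKd when stocks quantified by qNMR.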

[2] = biological target: T2, MGL (Rattus norvegicus, UniProt Q8R431); experiment: 2-AG accumulation assay in rat brain homogenate; type: biochemical; conditions: compound @1 μM, read-out: Rat Brain 2AG % VehCntrl (%) @1 μM
T2 construct: one g rat brain was homogenized; from tissue; host or cells: rat brain homogenate
T2 sequence (Q8R431 1-303): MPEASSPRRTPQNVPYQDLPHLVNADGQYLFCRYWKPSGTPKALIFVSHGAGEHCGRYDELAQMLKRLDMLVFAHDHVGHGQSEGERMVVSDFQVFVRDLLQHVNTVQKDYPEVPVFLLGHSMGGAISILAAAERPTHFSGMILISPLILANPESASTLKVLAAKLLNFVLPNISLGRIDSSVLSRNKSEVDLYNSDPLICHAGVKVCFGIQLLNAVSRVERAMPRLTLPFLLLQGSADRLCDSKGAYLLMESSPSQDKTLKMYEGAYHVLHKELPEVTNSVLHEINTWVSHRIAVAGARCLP
Method: After a 15-min incubation time at 37° C., CaCl2 (final concentration=10 mM) was added and then incubated for 15 min at 37° C. in a total volume of 5 mL. The reactions were stopped with 6 mL organic solvent extraction solution of 2:1 chloroform/methanol. Accumulated 2-AG in the organic phase was measured by a HPLC/MS method, according to the following equation: percent vehicle=(2-AG accumulation in the presence of compound/2-AG accumulation in vehicle)×100.

[3] = biological target: T3, purified wild type MGL (wt-MGLL 6H-11-313) (Homo sapiens, UniProt Q99685); experiment: MGL enzyme activity assay (4MU-B cleavage), wild type MGL; type: biochemical; conditions: 10 μM 4MU-B, 5 nM enzyme, 37° C., read-out: MGL wild type inh IC50
T3 construct: purified wild type MGL (wt-MGLL 6H-11-313)
T3 sequence (Q99685 1-303): T1 sequence (Q99685 1-303 L169S/L176S) with S169L, S176L
Outline: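 Enzyme (5 nM final) cleaved 4MU-B (10 μM final) in 20 mM PIPES pH 7.0 with 150 mM NaCl and 0.001% Tween 20. Compounds were tested at 17 to 0.0003 μM final. Fluorescence (ex 335/em 440 nm) was monitored at 37° C for 5 min, and IC50 was fitted from fractional activity versus inhibitor concentration.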

[4] = compound concentration measured by qNMR, read-out: MGL mutant ThermoFluor qKd (using qNMR conc.)
[5] = 0.07 mg/ml mutant MGL, pH=7.0, read-out: MGL mutant ThermoFluor Kd

| Kd [1, 4] | 2-AG accumulation, percent of vehicle control at 1 µM [2] | IC50 [3] | Kd [1, 5] | SMILES |
| --- | --- | --- | --- | --- |
| 24.5 nM | 498% | < 5 nM | – | O=C(c1ccc2c(ccn2-c2ccc(F)cc2)c1)N1CC(C2CCN(C(=O)c3ccc[nH]3)CC2)C1 [Cpd 42, 1-(4-Fluorophenyl)-5-({3-[1-(1H-pyrrol-2-ylcarbonyl)piperidin-4-yl]azetidin-1-yl}carbonyl)-1H-indole] |
| 1.2 nM | 552% | 12 nM | – | O=C(c1ccc[nH]1)N1CC(C2CCN(C(=O)c3sc4cc(C(F)(F)F)ccc4c3Cl)CC2)C1 [Cpd 71, 1-{[3-Chloro-6-(trifluoromethyl)-1-benzothiophen-2-yl]carbonyl}-4-[1-(1H-pyrrol-2-ylcarbonyl)azetidin-3-yl]piperidine] |
| – | 634% | 9 nM | 13.3 nM | O=C(c1ccc(Cc2ccc(C(F)(F)F)cc2)cc1)N1CC(C2CCN(C(=O)c3nccs3)CC2)C1 [Cpd 27, 1-(1,3-Thiazol-2-ylcarbonyl)-4-[1-({4-[4-(trifluoromethyl)benzyl]phenyl}carbonyl)azetidin-3-yl]piperidine] |
| – | 298% | 37.9 nM | 19.9 nM | O=C(c1ccc(-c2ccc(C(F)(F)F)s2)cc1)N1CC(C2CCN(C(=O)c3ccc[nH]3)CC2)C1 [Cpd 24, 1-(1H-Pyrrol-2-ylcarbonyl)-4-[1-({4-[5-(trifluoromethyl)thiophen-2-yl]phenyl}carbonyl)azetidin-3-yl]piperidine] |
| 5.7 nM | 724% | < 5 nM | 2.5 nM | O=C(c1cscn1)N1CCC(C2CN(C(=O)c3sc4cc(C(F)(F)F)ccc4c3Cl)C2)CC1 [Cpd 35, 4-(1-{[3-Chloro-6-(trifluoromethyl)-1-benzothiophen-2-yl]carbonyl}azetidin-3-yl)-1-(1,3-thiazol-4-ylcarbonyl)piperidine] |
| – | 470% | 8 nM | 6.6 nM | O=C(c1ccc(-c2cccc(C(F)(F)F)c2)cc1)N1CC(C2CCN(C(=O)c3ccc[nH]3)CC2)C1 [Cpd 22, 1-(1H-Pyrrol-2-ylcarbonyl)-4-(1-{[3′-(trifluoromethyl)biphenyl-4-yl]carbonyl}azetidin-3-yl)piperidine] |
| – | 287% | 12.4 nM | 28.6 nM | O=C(c1ccc[nH]1)N1CCC(C2CN(C(=O)c3ccc(-c4ccccc4)cc3F)C2)CC1 [Cpd 21, 4-{1-[(3-Fluorobiphenyl-4-yl)carbonyl]azetidin-3-yl}-1-(1H-pyrrol-2-ylcarbonyl)piperidine] |
| – | 185% | 56.5 nM | 25 nM | O=C(c1cscn1)N1CCC(C2CN(C(=O)c3sc4cc(F)ccc4c3Cl)C2)CC1 [Cpd 7, 4-{1-[(3-Chloro-6-fluoro-1-benzothiophen-2-yl)carbonyl]azetidin-3-yl}-1-(1,3-thiazol-4-ylcarbonyl)piperidine] |
| 0.6 nM | 561% | 8 nM | – | O=C(c1cscn1)N1CC(C2CCN(C(=O)c3sc4cc(C(F)(F)F)ccc4c3Cl)CC2)C1 [Cpd 70, 1-{[3-Chloro-6-(trifluoromethyl)-1-benzothiophen-2-yl]carbonyl}-4-[1-(1,3-thiazol-4-ylcarbonyl)azetidin-3-yl]piperidine] |
| – | 507% | < 5 nM | 22.5 nM | O=C(c1ccc2c(ccn2-c2ccc(F)cc2)c1)N1CC(C2CCN(C(=O)c3cscn3)CC2)C1 [Cpd 36, 1-(4-Fluorophenyl)-5-({3-[1-(1,3-thiazol-4-ylcarbonyl)piperidin-4-yl]azetidin-1-yl}carbonyl)-1H-indole] |
| 94.6 nM | 361% | 9 nM | – | O=C(c1ccc2nc(-c3ccccc3)oc2c1)N1CC(C2CCN(C(=O)c3ccc[nH]3)CC2)C1 [Cpd 40, 2-Phenyl-6-({3-[1-(1H-pyrrol-2-ylcarbonyl)piperidin-4-yl]azetidin-1-yl}carbonyl)-1,3-benzoxazole] |
| 4.8 nM | 875% | 12 nM | – | O=C(c1ccc2c(ccn2-c2ccc(F)cc2)c1)N1CCC(C2CN(C(=O)c3cscn3)C2)CC1 [Cpd 73, 1-(4-Fluorophenyl)-5-({4-[1-(1,3-thiazol-4-ylcarbonyl)azetidin-3-yl]piperidin-1-yl}carbonyl)-1H-indole] |
| 48.9 nM | 371% | < 5 nM | – | O=C(c1ccc(Cc2ccc(C(F)(F)F)cc2)cc1)N1CC(C2CCN(C(=O)c3ccc[nH]3)CC2)C1 [Cpd 39, 1-(1H-Pyrrol-2-ylcarbonyl)-4-[1-({4-[4-(trifluoromethyl)benzyl]phenyl}carbonyl)azetidin-3-yl]piperidine] |
| – | 184% | 17.3 nM | 99 nM | O=C(c1cccc(-c2cccc(F)c2)c1)N1CC(C2CCN(C(=O)c3nccs3)CC2)C1 [Cpd 17, 4-{1-[(3′-Fluorobiphenyl-3-yl)carbonyl]azetidin-3-yl}-1-(1,3-thiazol-2-ylcarbonyl)piperidine] |
| 3.3 nM | 285% | < 5 nM | 5.5 nM | O=C(c1ccc(-c2ccc(C(F)(F)F)s2)cc1)N1CCC(C2CN(C(=O)c3ccc[nH]3)C2)CC1 [Cpd 56, 4-[1-(1H-Pyrrol-2-ylcarbonyl)azetidin-3-yl]-1-({4-[5-(trifluoromethyl)thiophen-2-yl]phenyl}carbonyl)piperidine] |
| – | 777% | 16.4 nM | 11.1 nM | O=C(c1ccc2nc(-c3ccccc3)oc2c1)N1CC(C2CCN(C(=O)c3nccs3)CC2)C1 [Cpd 28, 2-Phenyl-6-({3-[1-(1,3-thiazol-2-ylcarbonyl)piperidin-4-yl]azetidin-1-yl}carbonyl)-1,3-benzoxazole] |
| 6.7 nM | 889% | 19.2 nM | – | O=C(c1ccc2nc(-c3ccccc3)oc2c1)N1CCC(C2CN(C(=O)c3nccs3)C2)CC1 [Cpd 66, 2-Phenyl-6-({4-[1-(1,3-thiazol-2-ylcarbonyl)azetidin-3-yl]piperidin-1-yl}carbonyl)-1,3-benzoxazole] |
| 0.6 nM | 422% | < 5 nM | 1.3 nM | Cc1c(C(=O)N2CCC(C3CN(C(=O)c4ccc[nH]4)C3)CC2)sc2cc(C(F)(F)F)ccc12 [Cpd 62] |
| – | 696% | < 5 nM | 62.6 nM | O=C(c1ccc(Cc2ccc(C(F)(F)F)cc2)cc1)N1CC(C2CCN(C(=O)c3cscn3)CC2)C1 [Cpd 33, 1-(1,3-Thiazol-4-ylcarbonyl)-4-[1-({4-[4-(trifluoromethyl)benzyl]phenyl}carbonyl)azetidin-3-yl]piperidine] |
| – | 457% | 12.5 nM | 3 nM | O=C(c1ccc(-c2ccc(C(F)(F)F)s2)cc1)N1CC(C2CCN(C(=O)c3nccs3)CC2)C1 [Cpd 18, 1-(1,3-Thiazol-2-ylcarbonyl)-4-[1-({4-[5-(trifluoromethyl)thiophen-2-yl]phenyl}carbonyl)azetidin-3-yl]piperidine] |
